Data published in the NIST ThermoML archive (doi:10.1021/acs.jced.8b01120).
Numbers after ± are expanded uncertainties.

Assay: xn = mol fraction of the nth substance listed
Conditions: 100 kPa, Liquid; for mass density: Vibrating tube method; for speed of sound: Single path-length method

CCCCN(CCCC)CCCC [tributylamine] + CCCOC(C)=O
Conditions	mass density, 303.15 K [kg/m3]	mass density, 308.15 K [kg/m3]	mass density, 313.15 K [kg/m3]	speed of sound, 308.15 K [m/s]	speed of sound, 313.15 K [m/s]
x1 = 0.0509	865.344 ± 2.1	859.857 ± 2.1	854.206 ± 2.1	1127.2 ± 4.4	1105.2 ± 4.4
x1 = 0.1204	851.275 ± 2.1	845.985 ± 2.1	840.603 ± 2.1	1132.9 ± 4.4	1111.2 ± 4.4
x1 = 0.2066	836.192 ± 2.1	831.184 ± 2	826.095 ± 2	1140.7 ± 4.3	1119.1 ± 4.3
x1 = 0.306	822.274 ± 2	817.519 ± 2	812.694 ± 2	1148.2 ± 4.3	1127.6 ± 4.3
x1 = 0.4043	810.785 ± 2	806.239 ± 2	801.63 ± 2	1156.6 ± 4.2	1136 ± 4.2
x1 = 0.5015	801.221 ± 2	796.775 ± 2	792.345 ± 2	1165.4 ± 4.2	1144.9 ± 4.2
x1 = 0.6007	792.841 ± 2	788.618 ± 2	784.342 ± 2	1172.6 ± 4.1	1153.4 ± 4.1
x1 = 0.7102	784.905 ± 2	780.824 ± 2	776.694 ± 2	1182.1 ± 4.1	1162.6 ± 4.1
x1 = 0.8007	779.377 ± 2	775.39 ± 2	771.367 ± 2	1190 ± 4.1	1171.2 ± 4.1
x1 = 0.9008	774.088 ± 2	770.204 ± 2	766.273 ± 2	1197.9 ± 4.1	1179.1 ± 4.1
x1 = 1	769.552 ± 2	765.811 ± 2	762.061 ± 2	1207.4 ± 4	1188.8 ± 4
